In PMC11013284, “Chemoselective Synthesis and Anti-Kinetoplastidal Properties of 2,6-Diaryl-4H-tetrahydro-thiopyran-4-one S-Oxides: Their Interplay in a Cascade of Redox Reactions from Diarylideneacetones” (Molecules, 2024):
Entries after “also recorded” stand apart in the source; their conditions may differ. Like-named read-outs stand apart in the source and are kept apart here.

Experiments:
[1] = tested on: Trypanosoma brucei brucei trypomastigotes, suramin-sensitive strain (Squib 427); assay: T. b. brucei growth/viability assay (resazurin); format: cell-based; settings: for IC50: 3 days
Protocol: After 3 days, parasite growth was assessed fluorimetrically following the addition of resazurin. After 24 h at 37 °C, fluorescence was measured (λex = 550 nm, λem = 590 nm). The results were expressed as a percentage reduction in parasite growth/viability compared to control wells, and a 50% inhibitory concentration (IC50) was calculated.

[2] = tested on: Trypanosoma cruzi (Tulahuen CL2 β-galactosidase) amastigotes in hMRC-5SV2 cells; assay: T. cruzi intracellular amastigote assay (β-galactosidase/CPRG); format: cell-based; settings: intracellular amastigotes, 7 days, read-out: IC50 T. cruzi intramacrophage amastigotes (converted)
Protocol: A nifurtimox-sensitive strain (Tulahuen CL2 β-galactosidase) in human lung fibroblast hMRC-5SV2 cells was incubated for 7 days in 96-well plates with five concentrations of compound (64, 16, 4, 1, and 0.25 μM). The parasitic burden was evaluated through the activity of the enzyme β-galactosidase on a specific chlorophenol red ß-D-galactopyranoside (CPRG) substrate. Live parasites converted the yellow-orange CPRG substrate into the red chromophore chlorophenol red, yielding a dark-red solution, which could be quantitatively measured at 540 nm after 4 h of incubation at 37 °C. The results were expressed as a percentage reduction in parasite growth/viability compared to control wells, and an IC50 was calculated.

[3] = tested on: L. infantum (MHOM/MA(BE)/67) amastigotes in primary peritoneal mouse macrophages; assay: L. infantum intramacrophage amastigote assay (microscopic burden); format: cell-based, Leishmania infantum; settings: 5 days, mouse macrophages as host
Protocol: L. infantum (MHOM/MA(BE)/67 strain) amastigote were incubated for 5 days in 96-well plates with five concentrations of compound (64, 16, 4, 1, and 0.25 μM). Primary peritoneal mouse macrophages were used as host cells. Parasite burdens (i.e., the number of amastigotes per macrophage) were microscopically assessed. The results were expressed as a percentage reduction in parasite burden compared to untreated control wells, and an IC50 was calculated.

in vitro = settings: human, CC50 hMRC-5 (cytotoxicity)
Protocol: (§1) The cytotoxicity of compounds was evaluated toward human diploid embryonic lung fibroblast hMRC-5SV2 cells, derived from fetal lung tissue and first described in 1970. hMRC-5SV2 cells were cultured in 96-well plates with five concentrations of the compound (64, 16, 4, 1, and 0.25 μM). After 3 days of incubation, the cell viability was assessed fluorimetrically after the addition of resazurin, and fluorescence was measured (λex = 550 nm, λem = 590 nm). The results were expressed as a percentage reduction in cell growth/viability compared to control wells, and a 50% cytotoxic concentration (CC50) was calculated. The reference cytotoxic drugs were tamoxifen or ivermectin. Additionally, toxicity toward mouse macrophages was qualitatively observed. Three concentrations were included (64, 16, and 4 µM), and the range of toxicity was ranked from the least toxic to the most toxic compound.

[4] = tested on: WT LV9 L. donovani intramacrophage amastigotes; assay: L. donovani intramacrophage amastigote assay; format: cell-based, Leishmania donovani; settings: WT LV9, ± SD in Tables S5/S6, read-out: IC50 L. donovani intramacrophage amastigotes
[5] = Solubility observations (crystals in assay, insolubility in solvents); format: physicochemical; settings: for solubility (observation): almost all types of solvent, even at very low concentrations; for presence of crystals, concentration range / presence of crystals (asterisk mark): noted in L. donovani assay, Table S5
[6] = tested on: human diploid embryonic lung fibroblast hMRC-5SV2 cells; assay: in vitro
Protocol: as §1

murine macrophages = assay: Qualitative toxicity toward mouse macrophages; settings: concentration at which toxicity was observed; 64, 16 and 4 µM tested
Protocol: as §1

[7] = Trypanosoma cruzi, TULAHUEN, 168 h
[8] = bracketed value after the intramacrophage IC50 (Table S5), Table S6

Structure (SMILES)	IC50 [1] [µM]	IC50 [3] [µM]	IC50 [4] [µM]	presence of crystals, concentration range [5] [µM]	observed macrophage death / lysis observed at (macrophages; [8]) [µM]	IC50 [2] [µM]	CC50 [6] [µM]	presence of crystals (asterisk mark) [5]	also measured
COc1ccc(C2CC(=O)CC(c3ccc(OC)cc3)S2(=O)=O)cc1 (racemic) [4d, (±)-trans-2,6-Di-(p-anisyl)-4H-tetrahydrothiopyran-4-one 1,1-dioxide]	43.3	≥ 64	–	–	–	–	–	–	anti-trypanosomal activity (IC50) ([1]; Trypanosoma (T. cruzi and T. b. brucei)): almost inactive; also recorded: completely inactive; IC50 [2, 7]: ≥ 64 µM; CC50 at 3 days (in vitro): ≥ 64 µM; IC50 ([4]; Leishmania donovani): > 100 µM; solubility (observation) [5]: Solubility issues; also recorded: insolubility
O=C1CC(c2ccccc2)SC(c2ccccc2)C1 (racemic) [2a]	–	–	> 100	6.25 to 200	200	–	–	–	–
O=C1CC(c2ccc(Cl)cc2)SC(c2ccc(Cl)cc2)C1 (racemic) [2f]	27.4	33.2	16.1 ± 1.4	–	> 75	> 64	> 64	* (presence of crystals at > 50 µM)	–
COc1ccc(/C=C/C(=O)/C=C/c2ccccc2)cc1 [1’h]	–	–	17.4 ± 1.9	–	> 37.5	–	–	** (presence of crystals at > 100 µM)	–
O=C(/C=C/c1c(Cl)cccc1Cl)/C=C/c1c(Cl)cccc1Cl [1h]	–	–	–	0.8 to 200	–	–	–	–	IC50 ([1]; Trypanosoma brucei, 72 h): > 64 µM; IC50 [2, 7]: 39.5 µM; IC50 ([3]; Leishmania infantum, Macrophage, 120 h): 32.5 µM; CC50 at 3 days (in vitro): > 64 µM; Toxicity (T) observed toward murine macrophages (murine macrophages): T1 (T1 = 64); observed macrophage death / lysis observed at (macrophages): > 6.2 µM
Cc1ccc(C2CC(=O)CC(c3ccc(C)cc3)S2)cc1 (racemic) [2c]	0.8	> 64	13.5 ± 2.8	–	200	3.7	24.2	** (presence of crystals at > 100 µM)	–
COc1ccc(/C=C/C(=O)/C=C/c2ccc3ccccc3c2)cc1 [1’j]	–	–	58.2 ± 8	–	> 150	–	–	** (presence of crystals at > 100 µM)	–
COc1ccc(C2CC(=O)CC(c3ccc(OC)cc3)S2(=O)=O)cc1 (stereo not drawn) [4′d, cis-2,6-Di-(p-anisyl)-4H-tetrahydrothiopyran-4-one 1,1-dioxide]	2.1	20.3	–	–	–	34.4	–	–	CC50 ([6]; human, 3 days): ≥ 64 µM; Toxicity (T) observed toward murine macrophages (murine macrophages): T1 (T1 = 64); solubility (observation) [5]: insolubility; solubility (observation) ([5]; listed as 4’d): Solubility issues
O=C1CC(c2c(Cl)cccc2Cl)SC(c2c(Cl)cccc2Cl)C1 (racemic) [2h]	> 64	2	–	12.5 to 200	–	> 64	> 64	–	–
